This is an account of results in PubChem BioAssay AID1259407 (Chemical Carcinogenesis Research Information System (CCRIS), 2018).

The subject of the data set is CCRIS mutagenicity, Ames/micronucleus/aberration tests. Put plainly: CCRIS mutagenicity studies.
Where [1] appears, read: Test System: AMES SALMONELLA TYPHIMURIUM, Strain/Indicator: TA98, Metabolic Activation: HAMSTER, LIVER, S-9, AROCLOR 1254 (10%), Method: PREINCUBATION
Where [2] appears, read: Test System: AMES SALMONELLA TYPHIMURIUM, Strain/Indicator: TA98, Metabolic Activation: NONE, Method: PREINCUBATION
Where [3] appears, read: Test System: AMES SALMONELLA TYPHIMURIUM, Strain/Indicator: TA98, Metabolic Activation: NONE, Method: STANDARD PLATE.
[4] abbreviates: Test System: AMES SALMONELLA TYPHIMURIUM, Strain/Indicator: TA98, Metabolic Activation: RAT, LIVER, S-9, AROCLOR 1254 (10%), Method: PREINCUBATION
The mark [5] stands for this setting: Test System: AMES SALMONELLA TYPHIMURIUM, Strain/Indicator: TA100, Metabolic Activation: HAMSTER, LIVER, S-9, AROCLOR 1254 (10%), Method: PREINCUBATION
Where [6] appears, read: Test System: AMES SALMONELLA TYPHIMURIUM, Strain/Indicator: TA100, Metabolic Activation: NONE, Method: PREINCUBATION
Where [7] appears, read: Test System: AMES SALMONELLA TYPHIMURIUM, Strain/Indicator: TA100, Metabolic Activation: NONE, Method: STANDARD PLATE.
Setting [8] is: Test System: AMES SALMONELLA TYPHIMURIUM, Strain/Indicator: TA100, Metabolic Activation: RAT, LIVER, S-9, AROCLOR 1254 (10%), Method: PREINCUBATION
The mark [9] stands for this setting: Test System: AMES SALMONELLA TYPHIMURIUM, Strain/Indicator: TA1535, Metabolic Activation: HAMSTER, LIVER, S-9, AROCLOR 1254 (10%), Method: PREINCUBATION
Where [10] appears, read: Test System: AMES SALMONELLA TYPHIMURIUM, Strain/Indicator: TA1535, Metabolic Activation: NONE, Method: PREINCUBATION
The mark [11] stands for this setting: Test System: AMES SALMONELLA TYPHIMURIUM, Strain/Indicator: TA1535, Metabolic Activation: RAT, LIVER, S-9, AROCLOR 1254 (10%), Method: PREINCUBATION
Setting [12] is: Test System: AMES SALMONELLA TYPHIMURIUM, Strain/Indicator: TA1537, Metabolic Activation: HAMSTER, LIVER, S-9, AROCLOR 1254 (10%), Method: PREINCUBATION
[13] abbreviates: Test System: AMES SALMONELLA TYPHIMURIUM, Strain/Indicator: TA1537, Metabolic Activation: NONE, Method: PREINCUBATION
[14] abbreviates: Test System: AMES SALMONELLA TYPHIMURIUM, Strain/Indicator: TA1537, Metabolic Activation: RAT, LIVER, S-9, AROCLOR 1254 (10%), Method: PREINCUBATION

The source made the active and inactive calls. The rule behind the calls is not given here.

Regarding `ClC(Br)Br`, the mutagenic call is “inactive; negative; authors describe as weakly positive” (End Point: IN VITRO CHROMOSOMAL ABERRATIONS, Test System: CHINESE HAMSTER LUNG FIBROBLAST CELLS (CHL/IU), Metabolic Activation: RAT, LIVER, S-9, PHENOBARBITAL AND 5,6-BENZOFLAVONE); “inactive; negative” (End Point: IN VITRO CHROMOSOMAL ABERRATIONS, Test System: CHO-LB CELLS, Metabolic Activation: NONE); “inactive; negative” (End Point: IN VIVO MICRONUCLEUS, Test System: BONE MARROW POLYCHROMATIC ERYTHROCYTES, Species: MOUSE, Strain/Sex: DDY/MALE, Route: IP); “active; positive” (Test System: AMES SALMONELLA TYPHIMURIUM, Strain/Indicator: RSJ100, Metabolic Activation: NONE, Method: STANDARD PLATE); “inactive; negative” under setting [1]; “inactive; negative” (Test System: AMES SALMONELLA TYPHIMURIUM, Strain/Indicator: TA98, Metabolic Activation: HAMSTER, LIVER, S-9, AROCLOR 1254, Method: PREINCUBATION). The mutagenic call is, setting by setting: under setting [2], “inactive; negative”; under setting [3], “inactive; negative”; under setting [4], “inactive; negative”; (Test System: AMES SALMONELLA TYPHIMURIUM, Strain/Indicator: TA98, Metabolic Activation: RAT, LIVER, S-9, AROCLOR 1254, Method: PREINCUBATION) “inactive; negative”; (Test System: AMES SALMONELLA TYPHIMURIUM, Strain/Indicator: TA98, Metabolic Activation: RAT, LIVER, S-9, AROCLOR 1254, Method: STANDARD PLATE) “active; positive”; under setting [5], “inactive; negative”. Besides, the mutagenic call by setting is: (Test System: AMES SALMONELLA TYPHIMURIUM, Strain/Indicator: TA100, Metabolic Activation: HAMSTER, LIVER, S-9, AROCLOR 1254, Method: PREINCUBATION) “inactive; negative”; (Test System: AMES SALMONELLA TYPHIMURIUM, Strain/Indicator: TA100, Metabolic Activation: NONE, Method: DESICCATOR) “active; positive”; (Test System: AMES SALMONELLA TYPHIMURIUM, Strain/Indicator: TA100, Metabolic Activation: NONE, Method: FLUCTUATION TEST) “inactive; negative”; under setting [6], “inactive; negative”; under setting [7], “inactive; negative”; under setting [8], “inactive; negative”. In addition, the mutagenic call is “inactive; negative” (Test System: AMES SALMONELLA TYPHIMURIUM, Strain/Indicator: TA100, Metabolic Activation: RAT, LIVER, S-9, AROCLOR 1254, Method: FLUCTUATION TEST); “inactive; negative” (Test System: AMES SALMONELLA TYPHIMURIUM, Strain/Indicator: TA100, Metabolic Activation: RAT, LIVER, S-9, AROCLOR 1254, Method: PREINCUBATION); “active; positive” (Test System: AMES SALMONELLA TYPHIMURIUM, Strain/Indicator: TA100, Metabolic Activation: RAT, LIVER, S-9, AROCLOR 1254, Method: STANDARD PLATE); “inactive; negative” under setting [9]; “inactive; negative” (Test System: AMES SALMONELLA TYPHIMURIUM, Strain/Indicator: TA1535, Metabolic Activation: HAMSTER, LIVER, S-9, AROCLOR 1254, Method: PREINCUBATION); “inactive; negative” under setting [10]. In addition, the mutagenic call is “active; positive” (Test System: AMES SALMONELLA TYPHIMURIUM, Strain/Indicator: TA1535, Metabolic Activation: NONE, Method: STANDARD PLATE); “inactive; negative” under setting [11]; “inactive; negative” (Test System: AMES SALMONELLA TYPHIMURIUM, Strain/Indicator: TA1535, Metabolic Activation: RAT, LIVER, S-9, AROCLOR 1254, Method: PREINCUBATION); “active; positive” (Test System: AMES SALMONELLA TYPHIMURIUM, Strain/Indicator: TA1535, Metabolic Activation: RAT, LIVER, S-9, AROCLOR 1254, Method: STANDARD PLATE); “inactive; negative” under setting [12]; “inactive; negative” (Test System: AMES SALMONELLA TYPHIMURIUM, Strain/Indicator: TA1537, Metabolic Activation: HAMSTER, LIVER, S-9, AROCLOR 1254, Method: PREINCUBATION). Also, the mutagenic call is “inactive; negative” under setting [13]; “active; positive” (Test System: AMES SALMONELLA TYPHIMURIUM, Strain/Indicator: TA1537, Metabolic Activation: NONE, Method: STANDARD PLATE); “inactive; negative” under setting [14]; “inactive; negative” (Test System: AMES SALMONELLA TYPHIMURIUM, Strain/Indicator: TA1537, Metabolic Activation: RAT, LIVER, S-9, AROCLOR 1254, Method: PREINCUBATION); “active; positive” (Test System: AMES SALMONELLA TYPHIMURIUM, Strain/Indicator: TA1537, Metabolic Activation: RAT, LIVER, S-9, AROCLOR 1254, Method: STANDARD PLATE); “inactive; negative” (Test System: MOUSE LYMPHOMA, Strain/Indicator: L5178Y (TK+/TK-), Metabolic Activation: NONE, Method: MICROWELL). In addition, the mutagenic call is, setting by setting: (Test System: MOUSE LYMPHOMA, Strain/Indicator: L5178Y (TK+/TK-), Metabolic Activation: NONE, Method: SUSPENSION/PLATE) “active; positive”; (Test System: MOUSE LYMPHOMA, Strain/Indicator: L5178Y (TK+/TK-), Metabolic Activation: S-9, Method: MICROWELL) “active; positive”; (Test System: UDS RAT HEPATOCYTES, Strain/Indicator: THY INCORP, Metabolic Activation: NONE, Method: AUTORADIOGRAPHY) “inactive; negative”.
Take `O=C1OC(=O)c2c(Cl)c(Cl)c(Cl)c(Cl)c21`: the mutagenic call by setting is: (End Point: IN VITRO CHROMOSOMAL ABERRATIONS, Test System: CHINESE HAMSTER OVARY CELLS, Metabolic Activation: NONE) “inactive; negative”; (End Point: IN VITRO CHROMOSOMAL ABERRATIONS, Test System: CHINESE HAMSTER OVARY CELLS, Metabolic Activation: RAT, LIVER, S-9, AROCLOR 1254) “inactive; negative”; under setting [1], “inactive; negative”; under setting [2], “inactive; negative”; under setting [4], “inactive; negative”; under setting [5], “inactive; negative”. The mutagenic call was “inactive; negative” under setting [6]; “inactive; negative” under setting [8]; “inactive; negative” under setting [9]; “inactive; negative” under setting [10]; “inactive; negative” under setting [11]; “inactive; negative” under setting [12]. The mutagenic call was “inactive; negative” under setting [13] and “inactive; negative” under setting [14].
Take `C=CCc1[c-]cccc1.C=CCc1[c-]cccc1.[Pt+2].c1ccc(P(c2ccccc2)c2ccccc2)cc1.c1ccc(P(c2ccccc2)c2ccccc2)cc1`: the mutagenic call reads like this: (Test System: AMES SALMONELLA TYPHIMURIUM, Strain/Indicator: TA92, Metabolic Activation: NONE, Method: STANDARD PLATE) “inactive; negative”; under setting [3], “inactive; negative”; under setting [7], “inactive; negative”; (Test System: AMES SALMONELLA TYPHIMURIUM, Strain/Indicator: TA2410, Metabolic Activation: NONE, Method: STANDARD PLATE) “inactive; negative”.
`Cc1c2cc(CO)ccc2nc2c1c1c(c3ccccc32)O1`: under setting [7], the mutagenic call was “inactive; negative”.
